Laboratory results: patent US8410106B2, “Hydrazine-substituted anthranilic acid derivatives” (Bayer Cropscience AG, priority 2010, dated 2013)
Read-outs that look alike come from different tables or passages of the source.

Tests used:
[1] = tested on: caterpillars of the army worm (Spodoptera frugiperda); assay: Spodoptera frugiperda test (SPODFR spray treatment); format: in vivo; settings: foliar, 168 h, read-out: activity (caterpillars killed)
[2] = logP determination by HPLC on reversed-phase columns (C 18), EEC Directive 79/831 Annex V.A8; format: physicochemical
[3] = tested on: larvae of the mustard beetle (Phaedon cochleariae); assay: Phaedon test (PHAECO spray treatment); settings: in Brassica rapa, foliar, 168 h, read-out: activity (beetle larvae killed)
[4] = tested on: green peach aphid (Myzus persicae); assay: Myzus test (MYZUPE spray treatment); format: in vivo; settings: foliar, 144 h, read-out: activity (aphids killed)
Protocol: After 6 days the activity is determined, in %.

[5] = HPLC, reversed-phase C 18, table value without method mark, read-out: logP

Structure (SMILES) | pest or weed control at 100 g/ha ([1]; in Zea mays) | chromatographic logP [2] | pest or weed control at 100 g/ha [3] | pest or weed control at 100 g/ha ([4]; in Brassica rapa) | chromatographic logP [2, 5] | pest or weed control at 100 g/ha ([1]; application rate 100 g/ha, after 7 days, maize leaf discs, spray) | pest or weed control at 100 g/ha ([4]; application rate 100 g/ha, after 6 days, Chinese cabbage leaf discs, spray) | chromatographic logP ([2]; HPLC, reversed-phase C 18, value in text of the Preparation Examples, read-out: logP)
COC(=O)N(C)N(C)C(=O)c1cc(C#N)cc(C)c1NC(=O)c1cc(Cn2nnc(C(F)(F)F)n2)nn1-c1ncccc1Cl [Example 8] | 100% | 2.97 | 100% | 100% |  |  |  | 
COC(=O)N(C)NC(=O)c1cc(C#N)cc(C)c1NC(=O)c1cc(Cn2nc(C(F)F)cc2C(F)F)nn1-c1ncccc1Cl [Example 63] | 100% | 2.59 | 100% | 100% |  |  |  | 
COC(=O)N(C)NC(=O)c1cc(Cl)cc(Cl)c1NC(=O)c1cc(Cn2nc(C(F)(F)F)cc2C)nn1-c1ncccc1Cl [Example 66] | 100% | 3.1 | 100% | 100% |  |  |  | 
COC(=O)N(C)N(C)C(=O)c1cc(C#N)cc(C)c1NC(=O)c1cc(Cn2nnc(C(F)(F)C(F)(F)C(F)(F)F)n2)nn1-c1ncccc1Cl [Example 82] | 100% |  | 100% | 100% | 3.67 |  |  | 
COC(=O)N(C)NC(=O)c1cc(Cl)cc(C)c1NC(=O)c1cc(Cn2ncc(C(F)(F)F)n2)nn1-c1ncccc1Cl [Example 30] | 100% | 2.94 | 100% | 100% |  |  |  | 
COC(=O)N(C)NC(=O)c1cc(C(F)(F)F)cc(C)c1NC(=O)c1cc(Cn2nnc(C(F)(F)F)n2)nn1-c1ncccc1Cl [Example 60] | 100% | 3.17 | 100% | 100% |  |  |  | 
COC(=O)N(C)NC(=O)c1cc(Cl)cc(Cl)c1NC(=O)c1cc(Cn2cnc(C(F)(F)F)c2C(F)(F)F)nn1-c1ncccc1Cl [Example 36] |  |  | 100% |  | 3.1 | 100% | 100% | 
COC(=O)N(C)NC(=O)c1cc(Cl)cc(C)c1NC(=O)c1cc(Cn2cc([N+](=O)[O-])c(C(F)(F)F)n2)nn1-c1ncccc1Cl [Example 20] | 100% | 3.07 | 100% | 90% |  |  |  | 
COC(=O)N(C)NC(=O)c1cc(Cl)cc(C)c1NC(=O)c1cc(Cn2nnnc2C(F)F)nn1-c1ncccc1Cl [Example 46] | 100% | 2.25 | 100% | 100% |  |  |  | 
COC(=O)N(C)NC(=O)c1cc(Cl)cc(Cl)c1NC(=O)c1cc(Cn2nnc(C(F)(F)C(F)(F)F)n2)nn1-c1ncccc1Cl [Example 25] | 100% | 3.32 | 100% | 100% |  |  |  | 
COC(=O)N(C)NC(=O)c1cc(Br)cc(C)c1NC(=O)c1cc(Cn2nnc(C(F)(F)C(F)(F)F)n2)nn1-c1ncccc1Cl [Example 53] | 100% | 3.4 | 100% | 100% |  |  |  | 
COC(=O)N(C)NC(=O)c1cc(Cl)cc(Cl)c1NC(=O)c1cc(Cn2ncc(C(F)(F)F)n2)nn1-c1ncccc1Cl [Example 31] | 100% | 2.94 | 100% | 100% |  |  |  | 
COC(=O)N(C)NC(=O)c1cc(C#N)cc(C)c1NC(=O)c1cc(Cn2nnc(C(F)F)n2)nn1-c1ncccc1Cl [Example 45] | 100% | 2.15 | 100% | 100% |  |  |  | 
COC(=O)N(C)NC(=O)c1cc(I)cc(C)c1NC(=O)c1cc(Cn2ncc(C(F)(F)F)n2)nn1-c1ncccc1Cl [Example 32] | 100% | 2.81 | 100% | 90% |  |  |  | 
COC(=O)N(C)NC(=O)c1cc(F)cc(C)c1NC(=O)c1cc(Cn2nnc(C(F)F)n2)nn1-c1ncccc1Cl [Example 75] | 100% | 2.19 | 100% | 100% |  |  |  | 
COC(=O)N(C)NC(=O)c1cc(I)cc(C)c1NC(=O)c1cc(Cn2cnc(C(F)(F)F)n2)nn1-c1ncccc1Cl [Example 69] | 100% | 2.71 | 100% | 100% |  |  |  | 
COC(=O)N(C)NC(=O)c1cc(Cl)cc(C)c1NC(=O)c1cc(Cn2nnc(C(F)(F)C(F)(F)F)n2)nn1-c1ncccc1Cl [Example 52] | 100% | 3.32 | 100% | 100% |  |  |  | 
COC(=O)N(C)NC(=O)c1cc(Cl)cc(C)c1NC(=O)c1cc(Cn2nnc(C(F)(F)C(F)(F)C(F)(F)F)n2)nn1-c1ncccc1Cl [Example 1, methyl N′-(5-chloro-2-{[2-(3-chloropyridin-2-yl)-5-(5-heptalluoropropyltetrazol-2-ylmethyl)-2H-pyrazole-3-carbonyl]amino}-3-methylbenzoyl)-N-methylhydrazinecarboxylate] | 100% |  | 100% | 100% |  |  |  | 3.66
COC(=O)N(C)NC(=O)c1cc(Cl)cc(C)c1NC(=O)c1cc(Cn2nc(C(F)F)cc2C(F)F)nn1-c1ncccc1Cl [Example 50] | 100% | 2.91 | 100% | 100% |  |  |  | 
COC(=O)N(C)NC(=O)c1cc(Cl)cc(C)c1NC(=O)c1cc(Cn2cc(C3CC3)nn2)nn1-c1ncccc1Cl [Example 37] | 100% | 2.18 | 100% | 100% |  |  |  | 
COC(=O)N(C)NC(=O)c1cc(I)cc(C)c1NC(=O)c1cc(Cn2nnc(C(F)(F)F)n2)nn1-c1ncccc1Cl [Example 51] | 100% | 3.15 | 100% | 100% |  |  |  | 
COC(=O)N(C)NC(=O)c1cc(Cl)cc(Cl)c1NC(=O)c1cc(Cn2cc(C(F)(F)F)nn2)nn1-c1ncccc1Cl [Example 34] | 100% | 2.61 | 100% | 100% |  |  |  | 
COC(=O)N(C)NC(=O)c1cc(Cl)cc(C)c1NC(=O)c1cc(Cn2cc(C(F)(F)F)nn2)nn1-c1ncccc1Cl [Example 33] | 100% | 2.61 | 100% | 100% |  |  |  | 
COC(=O)NNC(=O)c1cc(Cl)cc(C)c1NC(=O)c1cc(Cn2nnc(C(F)(F)C(F)(F)C(F)(F)F)n2)nn1-c1ncccc1Cl [Example 54] | 100% |  | 100% | 90% | 3.41 |  |  | 
COC(=O)NNC(=O)c1cc(Cl)cc(C)c1NC(=O)c1cc(Cn2cc(C3CC3)nn2)nn1-c1ncccc1Cl [Example 38] | 100% | 2.02 | 100% | 100% |  |  |  | 
